# Data published in patent US20030022811A1, “Favorable modulation of health-related quality of life and health-related quality-adjusted time-to-progression of disease in patients with prostate cancer” (priority 2001, published 2003).
# Entries after “also recorded” stand apart in the source; their conditions may differ.
# Experiments:
# Assay type in all cases: in vivo, human
# [1] = system: patients having hormone refractory prostate cancer (HRPCa); assay: Time to disease progression, PSA progression and markers of bone metabolism
# Description: Patients received treatment with either 10 mg (N=89) or 2.5 mg (N=95) of atrasentan or placebo (N=104) until experiencing a clinical event indicative of disease progression as defined by palliative opiate treatment of new bone or visceral pain, palliative radiation treatment of new bone pain, or new tumor growth symptoms requiring intervention or treatment with chemotherapy.
# [2] = system: patients having hormone refractory prostate cancer (HRPCa); assay: Area under the Curve (AUC) analysis of health-related QoL domain scores, one year follow-up
# Text: The Kaplan-Meier product limit method can provide biased results if study data are obtained under certain conditions such as staggered entry of subjects into the study and/or incomplete follow-up (Biometrics. 1989; 5:781-795). Thus, a second study was implemented to verify that the conclusions derived from the Kaplan-Meier would remain robust to the length of follow-up. The assumption was that all patients were followed for one year. Patients who discontinued from the study prior to one year of observation had their last observation for all health-related QoL domains carried forward through the remainder of the year. Similarly, patients who had not completed one year of observation had their health-related QoL data carried forward through one year. If the patient experienced a clinical event within the one year period, the last observation was not carried forward. The Area under the Curve (AUC) value for each domain was computed by multiplying the health-related QoL domain score by the respective duration of that score. Finally, AUC values were aggregated across all subjects within each respective treatment group (atrasentan (10 mg), atrasentan (2.5 mg), and placebo). Aggregated AUC values for each domain were compared for differences between treatment groups using a t-test.
# [3] = system: patients having hormone refractory prostate cancer (HRPCa); assay: Health-related quality-adjusted time-to-progression (QATTP), Kaplan-Meier product limit analysis; conditions: for health-related QATTP, difference between the atrasentan treatment groups: 10 mg vs 2.5 mg
# Description: The health-related QATTP model used for the practice of this invention expresses progression-free time as an equally preferable amount of time spent in full health. This is achieved by using patient-reported health-related QoL, as measured for the duration of observation or progression-free interval, to weight progression-free time. […] Patients received treatment with either 10 mg (N=89) or 2.5 mg (N=95) of atrasentan or placebo (N=104) until experiencing a clinical event indicative of disease progression as defined by palliative opiate treatment of new bone or visceral pain, palliative radiation treatment of new bone pain, or new tumor growth symptoms requiring intervention or treatment with chemotherapy. Patient-reported health-related QoL data were collected with the EORTC QLQ-30 and the FACT-G and FACT-P, both of which were administered at baseline, at six week intervals and at the patient's final visit. A patient's transformed domain score and total score from both the EORTC QLQ-30 and FACT were used to weight the time-to-progression outcome data. Transformed domain scores ranged between 0 and 1, so the reported health-related QATTP outcome was never larger than actual time to progression. Possible scores for the fourteen EORTC domains each range between […]. For six domains (physical, emotional, role, social, and cognitive functioning and global score), a higher score means a better health-related QoL. These six scores were transformed to weights by dividing the patient-reported scores by 100. For the remaining eight EORTC domains, a higher score indicates worse symptoms (a worse health-related QoL). These domains are pain, fatigue, nausea and vomiting, appetite loss, […], sleep disturbance, diarrhea, and constipation. These eight scores were converted to weight adjustments by dividing them by 100 and subtracting the result from the integer 1 to provide consistent directionality of response. […] Each patient's health-related QATTP was computed as the […] of the health-related QoL weights and the duration for which that patient experienced that health-related QoL. If a patient experienced a clinical event between two health-related QoL assessments, the set of health-related QoL domain scores immediately prior to the event were carried forward to the time of the clinical event. The mean and median health-related QATTP outcomes were then estimated using Kaplan-Meier product limit methodology (Journal of the American Statistical Association, vol.53, 1958, pp 457-481). The area under a Kaplan-Meier survival curve conveys an estimated mean health-related QATTP. This analysis was applied to both intent-to-treat (ITT) and per protocol population data. All health-related QATTP comparisons between atrasentan and placebo treatment groups were based on log-rang test statistical significance at an α of 0.05. Results of the Kaplan-Meier product limit survival method analysis are reported in Table 2 (Intent to Treat) and Table 3 (Per Protocol Population). Mean and median health-related QATTP are shown by treatment arm. Log-rank tests comparing the differences between treatment groups are also reported.
# [4] = 10 mg and 2.5 mg, Per Protocol subjects
# [5] = At. 10 mg, adjusted by FACT Functional Well Being, Intent to Treat
# [6] = At. 10 mg, adjusted by FACT Physical Well Being, Per Protocol
smiles,measurement,setting,value
"CCCCN(CCCC)C(=O)CN1C[C@H](c2ccc3c(c2)OCO3)[C@@H](C(=O)O)[C@@H]1c1ccc(OC)cc1 [atrasentan, (2R,3R,4S)-2-(4-methoxyphenyl)-4-(1,3-benzodioxol-5-yl)-1-(N,N-di(n-butyl)aminocarbonylmethyl)pyrrolidine-3-carboxylic]",time to disease progression compared to placebo,"[1]; 10 mg and 2.5 mg, Per Protocol analysis",delayed
same,markers of bone metabolism,[1]; [4],attenuated increases
same,time to prostate-specific antigen (PSA) progression,[1]; [4],delayed
same,time to disease or PSA progression across treatment groups,[1]; intent-to-treat population,no statistically significant differences
same,AUC results vs placebo group,"[2]; 2.5 mg, all domains except dyspnea, social/family, functional well-being and FACT-P",significantly improved
same,"AUC of health-related QoL domain scores, atrasentan treatment vs placebo",[2]; Intent to Treat population,no statistical differences
same,"AUC of health-related QoL domain scores, 10 mg vs 2.5 mg groups",[2]; per-protocol population,not statistically differentiable
same,"AUC of health-related QoL domain scores, atrasentan treatment groups vs placebo","[2]; per-protocol population, every QoL domain score",strong trends in favor
same,AUC for health-related QoL domain scores vs placebo,"[2]; physical functioning, social functioning and pain domains",significantly (p<0.05) longer
same,mean health-related QATTP vs placebo,"[3]; 2.5 mg, per protocol",longer
same,log rank test of health-related QATTP vs placebo,"[3]; 2.5 mg, per protocol, all QoL domains except dyspnea and functional well-being",statistically significant
same,"mean and median health-related QATTP, atrasentan treatment groups vs placebo","[3]; 10 mg and 2.5 mg, intent-to-treat population",no statistically significant differences
same,"health-related QATTP, difference between the atrasentan treatment groups",[3]; intent-to-treat population,no statistically significant differences
same,"health-related QATTP, difference between the atrasentan treatment groups","[3]; per protocol, any QoL domain",no statistical differences
same,health-related QATTP trend vs placebo,"[3]; 10 mg, per protocol, dyspnea, global score, emotional well-being, social well-being, p<0.10",trend favored
same,weighted health-related QATTP vs placebo group,"[3]; 10 mg, per protocol, p<0.05, all QoL domains except dyspnea, global score, emotional, social and functional well-being",significantly longer
same,Health-Related QATTP Mean,"[3]; At. 2.5 mg, adjusted by EORTC Cognitive Functioning, Intent to Treat",180 days
same,Health-Related QATTP Mean,"[3]; At. 2.5 mg, adjusted by EORTC Cognitive Functioning, Per Protocol",190 days
same,Health-Related QATTP Mean,"[3]; At. 2.5 mg, adjusted by EORTC Constipation, Intent to Treat",180 days
same,Health-Related QATTP Mean,"[3]; At. 2.5 mg, adjusted by EORTC Constipation, Per Protocol",190 days
same,Health-Related QATTP Mean,"[3]; At. 2.5 mg, adjusted by EORTC Dyspnea, Per Protocol",180 days
same,Health-Related QATTP Mean,"[3]; At. 2.5 mg, adjusted by FACT Emotional Well Being, Intent to Treat",180 days
same,Health-Related QATTP Mean,"[3]; At. 2.5 mg, adjusted by FACT Social/Family Well Being, Intent to Treat",160 days
same,Health-Related QATTP Mean,"[3]; At. 2.5 mg, adjusted by FACT-G, Per Protocol",180 days
same,Health-Related QATTP Mean,"[3]; At. 2.5 mg, adjusted by FACT-P, Per Protocol",160 days
same,Health-Related QATTP Mean,"[3]; At. 10 mg, adjusted by EORTC Role Functioning, Intent to Treat",180 days
same,Health-Related QATTP Mean,"[3]; At. 10 mg, adjusted by EORTC Social Functioning, Intent to Treat",190 days
same,Health-Related QATTP Mean,[3]; [5],140 days
same,Health-Related QATTP Median,[3]; [5],98 days
same,Health-Related QATTP Mean,[3]; [6],190 days
same,Health-Related QATTP Median,[3]; [6],130 days
same,Health-Related QATTP Mean,"[3]; At. 10 mg, adjusted by FACT-G, Intent to Treat",160 days
same,Health-Related QATTP Median,"[3]; At. 10 mg, adjusted by FACT-G, Per Protocol",130 days
same,health-related QATTP compared to placebo,"[3]; both 10 mg and 2.5 mg arms, per protocol analysis",improved; also recorded: longer
